Where two headings read alike, the source gives them in different places. Marks after values point to notes of the source that are not given here.
Tests used:
[1] = biological target: T1, human A1 adenosine receptor (Homo sapiens, UniProt P30542); experiment: Radioligand binding, human A1 AR, CHO membranes (Table 1); settings: for A1 % inhib.: species H (human), percent in parentheses, concentration not marked
T1 sequence (P30542 1-326): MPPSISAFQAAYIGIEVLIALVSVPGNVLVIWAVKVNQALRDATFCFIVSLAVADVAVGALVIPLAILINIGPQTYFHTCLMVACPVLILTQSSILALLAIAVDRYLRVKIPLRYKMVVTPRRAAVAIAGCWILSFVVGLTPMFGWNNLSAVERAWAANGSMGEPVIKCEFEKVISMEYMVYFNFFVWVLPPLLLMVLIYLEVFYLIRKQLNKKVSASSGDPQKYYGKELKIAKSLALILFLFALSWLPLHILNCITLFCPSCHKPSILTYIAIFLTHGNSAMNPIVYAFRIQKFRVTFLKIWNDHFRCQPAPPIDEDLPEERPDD

human A3AR = biological target: T2, human A3AR (Homo sapiens, UniProt P0DMS8); experiment: Inhibition of forskolin-stimulated cyclic AMP production in AR transfected CHO cells (Table 1); assay type: cell-based; settings: CHO; read-out: % Efficacy at the human A3 AR
T2 construct: expressed in transfected cells; host or cells: CHO
T2 sequence (P0DMS8 1-318): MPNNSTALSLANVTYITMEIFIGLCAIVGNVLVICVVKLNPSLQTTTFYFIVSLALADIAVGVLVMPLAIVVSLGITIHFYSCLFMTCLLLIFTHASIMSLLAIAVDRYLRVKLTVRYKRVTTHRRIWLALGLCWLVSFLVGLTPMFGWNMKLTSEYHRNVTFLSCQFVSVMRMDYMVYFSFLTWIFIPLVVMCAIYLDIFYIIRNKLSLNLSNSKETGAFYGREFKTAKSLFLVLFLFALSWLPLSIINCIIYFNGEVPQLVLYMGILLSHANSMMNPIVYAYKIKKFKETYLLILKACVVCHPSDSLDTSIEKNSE

[2] = biological target: T3, human A2A adenosine receptor (Homo sapiens, UniProt P29274); experiment: Radioligand binding, human A2A AR (Table 1)
T3 sequence (P29274 whole entry): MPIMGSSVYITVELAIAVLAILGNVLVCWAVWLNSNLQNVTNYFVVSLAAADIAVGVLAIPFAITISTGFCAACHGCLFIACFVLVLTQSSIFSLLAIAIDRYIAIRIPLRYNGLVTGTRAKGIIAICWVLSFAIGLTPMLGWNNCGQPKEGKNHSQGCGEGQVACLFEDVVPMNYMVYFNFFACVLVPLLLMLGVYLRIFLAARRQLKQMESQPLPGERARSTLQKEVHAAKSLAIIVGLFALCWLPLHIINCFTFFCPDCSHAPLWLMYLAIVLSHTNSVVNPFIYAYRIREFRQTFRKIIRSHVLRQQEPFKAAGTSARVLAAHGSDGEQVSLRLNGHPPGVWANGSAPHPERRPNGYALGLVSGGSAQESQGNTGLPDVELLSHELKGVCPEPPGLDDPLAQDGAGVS

mA3AR = biological target: T4, mA3AR (Mus musculus, UniProt Q61618); experiment: Competition binding at mA3AR, HEK293 membranes (Example 8); settings: read-out: Affinity (Ki, nM) mA3
T4 construct: expressed in transfected cells
T4 sequence (Q61618 1-319): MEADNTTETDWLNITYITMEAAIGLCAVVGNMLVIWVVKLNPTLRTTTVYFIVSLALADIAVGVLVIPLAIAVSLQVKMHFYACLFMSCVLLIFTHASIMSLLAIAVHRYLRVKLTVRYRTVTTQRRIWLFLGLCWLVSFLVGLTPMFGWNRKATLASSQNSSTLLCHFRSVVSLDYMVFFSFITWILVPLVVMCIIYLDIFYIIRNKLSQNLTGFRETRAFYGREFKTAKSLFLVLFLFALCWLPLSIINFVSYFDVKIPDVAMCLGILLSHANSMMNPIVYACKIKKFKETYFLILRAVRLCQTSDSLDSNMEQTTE

hA2AAR [3] = biological target: T5, hA2AAR (Homo sapiens, UniProt P29274); experiment: Binding at hA2AAR, HEK-293 membranes (Example 7); settings: read-out: % inhibition hA2A
T5 construct: expressed in transfected cells
T5 sequence (P29274 whole entry): as the sequence (P29274 whole entry) above
Procedure: After harvesting, cells were homogenized and suspended in PBS.
Nonspecific binding was determined using a final concentration of 10 μM 51 diluted with the buffer.

mA1AR = biological target: T6, mA1AR (Mus musculus, UniProt Q60612); experiment: Competition binding at mA1AR, HEK293 membranes (Example 8); settings: percent in parentheses, concentration not given
T6 construct: expressed in transfected cells
T6 sequence (Q60612 1-326): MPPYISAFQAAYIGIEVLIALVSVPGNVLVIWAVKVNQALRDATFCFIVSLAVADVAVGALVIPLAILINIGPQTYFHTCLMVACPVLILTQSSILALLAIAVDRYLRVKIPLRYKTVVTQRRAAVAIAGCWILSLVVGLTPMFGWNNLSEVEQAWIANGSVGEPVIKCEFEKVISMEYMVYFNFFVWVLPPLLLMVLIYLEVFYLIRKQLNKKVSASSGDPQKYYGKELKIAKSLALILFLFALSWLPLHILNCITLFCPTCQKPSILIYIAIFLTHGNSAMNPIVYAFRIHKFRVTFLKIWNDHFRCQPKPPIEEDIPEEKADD

hA1AR = biological target: T7, hA1AR (Homo sapiens, UniProt P30542); experiment: Binding at hA1AR, CHO membranes (Example 7); settings: read-out: % inhibition hA1
T7 construct: expressed in transfected cells; host or cells: CHO
T7 sequence (P30542 1-326): T1 sequence (P30542 1-326)

hA3AR = biological target: T8, hA3AR (Homo sapiens, UniProt P0DMS8); experiment: Binding at hA3AR, CHO membranes (Example 7); settings: read-out: Affinity (Ki, nM) hA3
T8 construct: expressed in transfected cells; host or cells: CHO
T8 sequence (P0DMS8 1-318): T2 sequence (P0DMS8 1-318)

[4] = biological target: T9, human A3 adenosine receptor (Homo sapiens, UniProt P0DMS8); experiment: [125I]I-AB-MECA binding, human A3 AR, CHO membranes (Table 1); settings: for Ki: A3 Ki, species H (human)
T9 sequence (P0DMS8 1-318): T2 sequence (P0DMS8 1-318)

[5] = biological target: mouse A2A adenosine receptor (Mus musculus, UniProt Q60613); experiment: Competition radioligand binding, mouse A2A AR, HEK293 membranes (Table 1)
Sequence of mouse A2A adenosine receptor (Q60613 whole entry): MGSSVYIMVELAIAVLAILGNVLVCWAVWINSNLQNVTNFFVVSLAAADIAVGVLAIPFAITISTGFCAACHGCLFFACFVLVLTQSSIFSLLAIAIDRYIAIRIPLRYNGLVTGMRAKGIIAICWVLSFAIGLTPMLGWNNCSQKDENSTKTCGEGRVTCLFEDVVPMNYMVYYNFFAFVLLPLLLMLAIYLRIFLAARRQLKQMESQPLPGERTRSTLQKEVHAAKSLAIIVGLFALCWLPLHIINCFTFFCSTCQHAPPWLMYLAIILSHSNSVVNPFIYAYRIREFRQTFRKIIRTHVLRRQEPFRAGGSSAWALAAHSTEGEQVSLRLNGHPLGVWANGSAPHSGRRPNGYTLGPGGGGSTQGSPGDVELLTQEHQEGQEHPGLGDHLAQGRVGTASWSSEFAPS

[6] = biological target: T3, human A2A adenosine receptor; parameters: expressed in transfected cells; settings: species H (human); percent inhibition at 10 μM; data from Tchilibon et al.; cited from earlier work
hA2AAR [7] = biological target: T5, hA2AAR; settings: inhibition of radioligand binding at 10 μM; values from the literature; cited from earlier work
mA2AAR = biological target: T10, mA2AAR (Mus musculus, UniProt Q60613); settings: values from Melman et al.; concentration not defined (mark ^1); cited from earlier work
T10 construct: expressed in transfected cells
T10 sequence (Q60613 whole entry): as above

| Compound | Emax at 10 µM (human A3AR) [%] | Ki (mA3AR) [nM] | inhibition at 10 µM (hA2AAR [3]) [%] | % inhibition mA1 (mA1AR) | inhibition at 10 µM (hA1AR) [%] | Ki (hA3AR) [nM] | further results |
| --- | --- | --- | --- | --- | --- | --- | --- |
| CNC(=O)C12CC1C(n1cnc3c(NC4CCCC4)nc(Cl)nc31)C(O)C2O (stereo not shown) [Compound 32] | 101 | – | – | – | – | – | Ki [1]: 18.3 ± 6.3 nM; Ki [2]: 3.25 ± 0.3 µM |
| CNC(=O)[C@@]12C[C@@H]1[C@@H](n1cnc3c(NC)nc(C#Cc4ccccc4Cl)nc31)[C@H](O)[C@@H]2O [Compound 314, (1S,2R,3S,4R,5S)-4-(2-((2-Chlorophenyl)ethynyl)-6-(methylamino)-9H-purin-9-yl)-2,3-dihydroxy-N-methylbicyclo[3.1.0]hexane-1-carboxamide] | – | 55 | 30 | (45%) | 22 | 0.58 ± 0.04 | – |
| CNC(=O)[C@@]12C[C@@H]1[C@@H](n1cnc3c(NCc4cccc(Cl)c4)nc(C#Cc4ccc(-c5ccccc5)cc4)nc31)[C@H](O)[C@@H]2O [Compound 335, (1S,2R,3S,4R,5S)-4-(2-(Biphenyl-4-ylethynyl)-6-(3-chlorobenzylamino)-9H-purin-9-yl)-2,3-dihydroxy-N-methylbicyclo[3.1.0]hexane-1-carboxamide] | – | 22 | 0 | (28%) | – | 3.06 ± 1.35 | – |
| CNC(=O)[C@@]12C[C@@H]1[C@@H](n1cnc3c(NC)nc(C#Cc4ccc(F)cc4)nc31)[C@H](O)[C@@H]2O [Compound 313, (1S,2R,3S,4R,5S)-4-(2-((4-Fluorophenyl)ethynyl)-6-(methylamino)-9H-purin-9-yl)-2,3-dihydroxy-N-methylbicyclo[3.1.0]hexane-1-carboxamide] | – | 66 | 19 | (25%) | 27 | 0.53 ± 0.09 | – |
| CNC(=O)C12CC1C(n1cnc3c(NCc4cccc(C#CCO)c4)nc(Cl)nc31)C(O)C2O (stereo not shown) [Compound 16] | – | – | – | – | – | – | inhibition at 100 µM ([5]; read-out: A2A % inhib.): 11%; A2A % inhib. [6]: (56%)^f |
| CNC(=O)[C@@]12C[C@@H]1[C@@H](n1cnc3c(NCc4cccc(Cl)c4)nc(C#Cc4ccccc4Cl)nc31)[C@H](O)[C@@H]2O [Compound 329, (1S,2R,3S,4R,5S)-4-(6-(3-Chlorobenzylamino)-2-((2-chlorophenyl)ethynyl)-9H-purin-9-yl)-2,3-dihydroxy-N-methylbicyclo[3.1.0]hexane-1-carboxamide] | – | 7.5 | 52 | (36%) | 20 | 1.92 ± 0.57 | – |
| CCCC#Cc1nc(NCc2cccc(Cl)c2)c2ncn([C@@H]3[C@H](O)[C@H](O)[C@]4(C(=O)NC)C[C@H]34)c2n1 [Compound 5, (1′S,2′R,3′S,4′S,5′S)-4′-[6-(3-Chlorobenzylamino)-2-(1-pentynyl)-9-yl]-2′,3′-dihydroxybicyclo[3.1.0]hexane-1′-carboxylic acid N-methylamide] | – | – | – | – | – | – | A2A % inhib. ([5]; species M (mouse), percent inhibition at 100 μM): (42%)^i; % inhibition hA2A (hA2AAR [7]): (80%); % inhibition mA2A (mA2AAR): (42%)^1; A2A % inhib. ([2]; species H (human), percent inhibition at 10 μM): (80%)^f |
| CNC(=O)C12CC1C(n1cnc3c(NCc4cccc(Cl)c4)nc(C#CCCC(=O)NCCNC(=O)CCCCCNC(=O)CCCCC4SCC5NC(=O)NC54)nc31)C(O)C2O (stereo not drawn) [Compound 43, (1′S,2′R,3′S,4′S,5′S)-4′-[6-(3-Chlorobenzylamino)-2-(N-biotinyl {5-aminopentanyl}(β-aminoethylaminocarbonyl)-1-butynyl)-9-yl]-2′,3′-dihydroxybicyclo[3.1.0]hexane-1′-carboxylic acid N-methylamide] | 106 ± 17.7 | – | – | – | – | – | Ki [4]: 57.7 ± 16.2 nM; A1 % inhib. [1]: (8 ± 4%) |
| CNC(=O)C12CC1C(n1cnc3c(NCc4cccc(Cl)c4)nc(C#CCCC(=O)NCCCCN)nc31)C(O)C2O (stereo not drawn) [Compound 40, (1′S, 2′R, 3′S, 4′S, 5′S)-4′-[6-(3-Chlorobenzylamino)-2-(4-(β-aminobutylaminocarbonyl)-1-butynyl)-9-yl]-2′,3′-dihydroxybicyclo[3.1.0]hexane-1′-carboxylic acid N-methylamide] | 102 ± 13 | – | – | – | – | – | Ki [4]: 2.1 ± 0.4 nM; Selectivity A1/A3 ([4]; human): up to 1900; Ki [2]: 0.766 ± 0.109 µM |

Second part, led by results:

| Emax at 10 µM (human A3AR) [%] | Ki (mA3AR) [nM] | inhibition at 10 µM (hA2AAR [3]) [%] | % inhibition mA1 (mA1AR) | inhibition at 10 µM (hA1AR) [%] | Ki (hA3AR) [nM] | Compound | further results |
| --- | --- | --- | --- | --- | --- | --- | --- |
| 90 ± 6.2 | – | – | – | – | – | CNC(=O)C12CC1C(n1cnc3c(NCc4cccc(Cl)c4)nc(C#CCCCCC(=O)OC)nc31)C(O)C2O (stereo not shown) [Compound 36] | Ki [4]: 11.1 ± 2.3 nM; A1 % inhib. [1]: (21 ± 8%); Ki [2]: 3.54 ± 1.37 µM |
| 74.4 ± 5.1 | – | – | – | – | – | CNC(=O)C12CC1C(n1cnc3c(NCc4cccc(Cl)c4)nc(C#CCCC(=O)OC)nc31)C(O)C2O (stereo not shown) [Compound 35] | Ki [4]: 5.5 ± 0.3 nM; A1 % inhib. [1]: (19 ± 3%) |
| – | 7.5 | 42 | (39%) | 19 | – | CNC(=O)[C@@]12C[C@@H]1[C@@H](n1cnc3c(NCc4cccc(Cl)c4)nc(C#Cc4ccc(F)cc4)nc31)[C@H](O)[C@@H]2O [Compound 328, (1S,2R,3S,4R,5S)-4-(6-(3-Chlorobenzylamino)-2-((4-fluorophenyl)ethynyl)-9H-purin-9-yl)-2,3-dihydroxy-N-methylbicyclo[3.1.0]hexane-1-carboxamide] | – |
| – | 16 | 27 | (41%) | 18 | – | CNC(=O)[C@@]12C[C@@H]1[C@@H](n1cnc3c(NCc4cccc(Cl)c4)nc(C#Cc4ccccc4)nc31)[C@H](O)[C@@H]2O [Compound 327, (1S,2R,3S,4R,5S)-4-(6-(3-Chlorobenzylamino)-2-(phenylethynyl)-9H-purin-9-yl)-2,3-dihydroxy-N-methylbicyclo[3.1.0]hexane-1-carboxamide] | – |
| – | 17 | 44 | (93%) | 2 | 2.27 ± 0.7 | CNC(=O)[C@@]12C[C@@H]1[C@@H](n1cnc3c(NCc4cccc(Cl)c4)nc(C#Cc4ccc(N)cc4)nc31)[C@H](O)[C@@H]2O [Compound 332a, (1S,2R,3S,4R,5S)-4-(2-((4-Aminophenyl)ethynyl)-6-(3-chlorobenzylamino)-9H-purin-9-yl)-2,3-dihydroxy-N-methylbicyclo[3.1.0]hexane-1-carboxamide] | – |

From patent publication US8916570B2 (The United States of America, as represented by the …, priority 2008, dated 2014)
